According to ChEMBL document CHEMBL1201862, “PubChem BioAssay data set” (2004):
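A five-concentration, 48-hour dose response in 96-well plates underlies each endpoint, interpolated linearly between surrounding concentrations. The concentration for 50% growth inhibition is given as GI50.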 Activity calls are given as the source filed them. Rule as the data show it: active = GI50 up to about 1.1 µM and inactive = higher.

Key:
Assay in all cases: growth of human tumour cells (NCI), 48 h
786-0 = system: 786-0
A549 = system: A549
ACHN = system: ACHN
BT-549 = system: BT-549
CAKI-1 = system: CAKI-1
CCRF-CEM = system: CCRF-CEM
COLO 205 = system: COLO 205
DU-145 = system: DU-145
EKVX = system: EKVX
HCC 2998 = system: HCC 2998
HCT-116 = system: HCT-116
HCT-15 = system: HCT-15
HL-60 = system: HL-60
HOP-62 = system: HOP-62
HOP-92 = system: HOP-92
HT-29 = system: HT-29
IGROV-1 = system: IGROV-1
LOX IMVI = system: LOX IMVI
M14 = system: M14
MCF7 = system: MCF7
MDA-MB-231 = system: MDA-MB-231
MDA-MB-435 = system: MDA-MB-435
MDA-N = system: MDA-N
MOLT-4 = system: MOLT-4
NCI-H226 = system: NCI-H226
NCI-H23 = system: NCI-H23
OVCAR-3 = system: OVCAR-3
OVCAR-4 = system: OVCAR-4
OVCAR-5 = system: OVCAR-5
PC-3 = system: PC-3
RPMI-8226 = system: RPMI-8226
RXF 393 = system: RXF 393
SF-295 = system: SF-295
SF-539 = system: SF-539
SK-MEL-28 = system: SK-MEL-28
SK-MEL-2 = system: SK-MEL-2
SK-MEL-5 = system: SK-MEL-5
SK-OV-3 = system: SK-OV-3
SN12C = system: SN12C
SNB-19 = system: SNB-19
SR = system: SR
T47D = system: T47D
TK-10 = system: TK-10
U-251 = system: U-251
UACC-257 = system: UACC-257
UACC-62 = system: UACC-62
UO-31 = system: UO-31
A498 = system: A498
K562 = system: K562
KM12 = system: KM12
Malme-3M = system: Malme-3M
NCI-H460 = system: NCI-H460
NCI/ADR-RES = system: NCI/ADR-RES
OVCAR-8 = system: OVCAR-8
SF-268 = system: SF-268
SNB-75 = system: SNB-75
SW-620 = system: SW-620
NCI-H522 = system: NCI-H522

## CN1C(=O)C(O)C[C@@H]1c1ccc(F)cc1 (stereo partly drawn)
786-0
  GI50: > 100 µM (inactive)
A549
  GI50: > 100 µM (inactive)
ACHN
  GI50: > 100 µM (inactive)
BT-549
  GI50: > 100 µM (inactive)
CAKI-1
  GI50: > 100 µM (inactive)
CCRF-CEM
  GI50: > 100 µM (inactive)
COLO 205
  GI50: > 100 µM (inactive)
DU-145
  GI50: > 100 µM (inactive)
EKVX
  GI50: > 100 µM (inactive)
HCC 2998
  GI50: > 100 µM (inactive)
HCT-116
  GI50: > 100 µM (inactive)
HCT-15
  GI50: > 100 µM
HL-60
  GI50: > 100 µM (inactive)
HOP-62
  GI50: > 100 µM (inactive)
HOP-92
  GI50: > 100 µM (inactive)
HT-29
  GI50: > 100 µM (inactive)
IGROV-1
  GI50: > 100 µM (inactive)
LOX IMVI
  GI50: > 100 µM (inactive)
M14
  GI50: > 100 µM (inactive)
MCF7
  GI50: > 100 µM (inactive)
MDA-MB-231
  GI50: > 100 µM (inactive)
MDA-MB-435
  GI50: > 100 µM (inactive)
MDA-N
  GI50: > 100 µM (inactive)
MOLT-4
  GI50: > 100 µM (inactive)
NCI-H226
  GI50: > 100 µM (inactive)
NCI-H23
  GI50: > 100 µM (inactive)
OVCAR-3
  GI50: > 100 µM (inactive)
OVCAR-4
  GI50: > 100 µM (inactive)
OVCAR-5
  GI50: > 100 µM (inactive)
PC-3
  GI50: > 100 µM (inactive)
RPMI-8226
  GI50: > 100 µM (inactive)
RXF 393
  GI50: > 100 µM (inactive)
SF-295
  GI50: > 100 µM (inactive)
SF-539
  GI50: > 100 µM (inactive)
SK-MEL-28
  GI50: > 100 µM (inactive)
SK-MEL-2
  GI50: > 100 µM (inactive)
SK-MEL-5
  GI50: > 100 µM (inactive)
SK-OV-3
  GI50: > 100 µM (inactive)
SN12C
  GI50: > 100 µM (inactive)
SNB-19
  GI50: > 100 µM (inactive)
SR
  GI50: > 100 µM (inactive)
T47D
  GI50: > 100 µM (inactive)
TK-10
  GI50: > 100 µM (inactive)
U-251
  GI50: > 100 µM (inactive)
UACC-257
  GI50: > 100 µM (inactive)
UACC-62
  GI50: > 100 µM (inactive)
UO-31
  GI50: > 100 µM (inactive)

## CCn1c2ccccc2c2ccc(C3C(C(=O)OC)=C(C)NC(C)=C3C(=O)OC)cc21
786-0
  GI50: 38.2 µM (inactive)
A498
  GI50: 19.8 µM (inactive)
A549
  GI50: 46.6 µM (inactive)
ACHN
  GI50: 38.8 µM (inactive)
BT-549
  GI50: 49.3 µM (inactive)
CAKI-1
  GI50: 31 µM (inactive)
CCRF-CEM
  GI50: 30.4 µM (inactive)
COLO 205
  GI50: 48.5 µM (inactive)
DU-145
  GI50: > 100 µM (inactive)
EKVX
  GI50: 45.6 µM (inactive)
HCC 2998
  GI50: 42.5 µM (inactive)
HCT-116
  GI50: 43.7 µM (inactive)
HCT-15
  GI50: 46.3 µM
HL-60
  GI50: 20.1 µM (inactive)
HOP-62
  GI50: 55.1 µM (inactive)
HT-29
  GI50: 33.7 µM (inactive)
IGROV-1
  GI50: > 100 µM (inactive)
K562
  GI50: 41.7 µM (inactive)
KM12
  GI50: 33.7 µM (inactive)
LOX IMVI
  GI50: 35.8 µM (inactive)
MCF7
  GI50: 27 µM (inactive)
MDA-MB-231
  GI50: 15.9 µM (inactive)
MDA-MB-435
  GI50: 45.6 µM (inactive)
MDA-N
  GI50: 37.8 µM (inactive)
MOLT-4
  GI50: 28.2 µM (inactive)
Malme-3M
  GI50: 20 µM (inactive)
NCI-H226
  GI50: 33 µM (inactive)
NCI-H23
  GI50: 56 µM (inactive)
NCI-H460
  GI50: 35.5 µM (inactive)
NCI/ADR-RES
  GI50: 38.5 µM (inactive)
OVCAR-3
  GI50: 33.3 µM (inactive)
OVCAR-4
  GI50: 51.5 µM (inactive)
OVCAR-5
  GI50: > 100 µM (inactive)
OVCAR-8
  GI50: 49.3 µM (inactive)
RPMI-8226
  GI50: 21.1 µM (inactive)
RXF 393
  GI50: 15.4 µM (inactive)
SF-268
  GI50: 73.8 µM (inactive)
SF-295
  GI50: 31.7 µM (inactive)
SF-539
  GI50: 30.2 µM (inactive)
SK-MEL-28
  GI50: 70.1 µM (inactive)
SK-MEL-5
  GI50: 43.6 µM (inactive)
SK-OV-3
  GI50: > 100 µM (inactive)
SN12C
  GI50: 45.1 µM (inactive)
SNB-19
  GI50: 55.8 µM (inactive)
SNB-75
  GI50: 51.5 µM (inactive)
SR
  GI50: 42.9 µM (inactive)
SW-620
  GI50: 66.1 µM (inactive)
T47D
  GI50: 63.8 µM (inactive)
TK-10
  GI50: 59.2 µM (inactive)
U-251
  GI50: 67.8 µM (inactive)
UACC-257
  GI50: 48.2 µM (inactive)
UACC-62
  GI50: 87.9 µM (inactive)
UO-31
  GI50: 39 µM (inactive)

## Cc1ccc(C(=O)Nc2ccc(S(=O)(=O)O)c3cc(S(=O)(=O)O)cc(S(=O)(=O)O)c23)cc1NC(=S)Nc1cc(C(=O)Nc2ccc(S(=O)(=O)O)c3cc(S(=O)(=O)O)cc(S(=O)(=O)O)c23)ccc1C
786-0
  GI50: > 75 µM (inactive)
A498
  GI50: > 75 µM (inactive)
A549
  GI50: > 75 µM (inactive)
ACHN
  GI50: > 75 µM (inactive)
BT-549
  GI50: > 75 µM (inactive)
CAKI-1
  GI50: > 75 µM (inactive)
CCRF-CEM
  GI50: > 75 µM (inactive)
DU-145
  GI50: > 75 µM (inactive)
HCC 2998
  GI50: > 75 µM (inactive)
HCT-116
  GI50: > 75 µM (inactive)
HCT-15
  GI50: > 75 µM
HL-60
  GI50: > 75 µM (inactive)
HOP-62
  GI50: > 75 µM (inactive)
HT-29
  GI50: > 75 µM (inactive)
IGROV-1
  GI50: > 75 µM (inactive)
K562
  GI50: > 75 µM (inactive)
LOX IMVI
  GI50: > 75 µM (inactive)
M14
  GI50: > 75 µM (inactive)
MCF7
  GI50: > 75 µM (inactive)
MDA-MB-231
  GI50: > 75 µM (inactive)
MDA-MB-435
  GI50: > 75 µM (inactive)
MDA-N
  GI50: > 75 µM (inactive)
MOLT-4
  GI50: > 75 µM (inactive)
Malme-3M
  GI50: > 75 µM (inactive)
NCI-H226
  GI50: > 75 µM (inactive)
NCI-H23
  GI50: > 75 µM (inactive)
NCI-H460
  GI50: > 75 µM (inactive)
NCI-H522
  GI50: > 75 µM (inactive)
OVCAR-3
  GI50: > 75 µM (inactive)
OVCAR-4
  GI50: > 75 µM (inactive)
OVCAR-5
  GI50: > 75 µM (inactive)
OVCAR-8
  GI50: > 75 µM (inactive)
PC-3
  GI50: > 75 µM (inactive)
RPMI-8226
  GI50: > 75 µM (inactive)
SF-268
  GI50: > 75 µM (inactive)
SK-MEL-28
  GI50: > 75 µM (inactive)
SK-MEL-2
  GI50: > 75 µM (inactive)
SK-MEL-5
  GI50: > 75 µM (inactive)
SN12C
  GI50: > 75 µM (inactive)
SNB-19
  GI50: > 75 µM (inactive)
SNB-75
  GI50: > 75 µM (inactive)
SR
  GI50: > 75 µM (inactive)
SW-620
  GI50: > 75 µM (inactive)
TK-10
  GI50: > 75 µM (inactive)
U-251
  GI50: > 75 µM (inactive)
UACC-257
  GI50: > 75 µM (inactive)
UACC-62
  GI50: > 75 µM (inactive)
UO-31
  GI50: > 75 µM (inactive)
